Series [1] relates to SMI-32 positive motoneurons in spinal cord explants. Briefly: Spinal cord organotypic cultures, chronic excitotoxicity (THA). It counts as cell-based, rat. To be noted: ORY-2001 5, 25 and 125 nM, THA 100 µM. As to the method:
Lumbar spinal cords were aseptically obtained from 8-day-old Sprague-Dawley rat pups previously euthanized by pentobarbital overdose. The tissue was placed in ice-cold high glucose containing (6.4 mg/mL) Gey’s Balanced Salt Solution (GBSS). Meninges and roots were removed, and the spinal cord was transversely sectioned into 350 µm thick slices with a McIlwain Tissue Chopper. Four slices were carefully transferred onto 30-mm-diameter Millicell-CM membranes (0.4 µm, Millipore, Billerica, MA, USA) into a 6-well plate (35-mm-diameter, Falcon) containing 1 mL of incubation medium [50% (v/v) minimal essential medium (MEM), 25 mM Hepes, 25% (v/v) heat- inactivated horse serum, 2 mM glutamine and 25% (v/v) Hank’s Balanced Salt Solution (HBSS) supplemented with 25.6 mg/mL glucose; pH 7.2. Cultures were allowed to stabilize for 1 week at 37 °C in a 5% CO2/95% air humidified environment, and thereafter medium was changed twice per week. After 7 days of the explant culture, chronic glutamate excitotoxicity was induced by exposure at DL-threo-β-hydroxyaspartic acid (THA; 100 µM; Sigma-Aldrich, Saint Louis, MO, USA). […] Motoneurons, identified by SMI-32 immunostaining and localization in the ventral horn, were counted by using the Cell Counter plugin of ImageJ software. A minimum of 12 sections were evaluated for each experimental condition.

Series [2] is described as follows: Drug exposure in male and female animals. It counts as in vivo. To be noted: mice and rats. An excerpt: Sex and Gender in this Research
Multiple sclerosis (MS) is more prevalent in women than men, but male patients develop more severe clinical symptoms and deteriorate faster than female patients. With respect to the animal models for MS used in this research, t he following aspects were considered: […]
and rats, which were not deemed relevant for this research. Previous efficacy studies in the […]
animals usedand perfo rm separate studies for male an female mice in MS models.
MOG35-55 induced EAE in C57BL/6 mice:
No differences have been observed in disease incidence or severity between sexes in MOG35-55 induced EAE in C57BL/6 mice in a study by Papenfuss et al. (J Neuroimmunol, 2004;150(1-2):59-69, therefore it was not deemed justified to increase the number of animals used in the studies to study males and females independently in the experiments reported in this […]
Although a higher incidence and severity has been reported for male than female SJL mice in the TMEV model (Alley et al. Exp Neurol, 2003 Mar;180(1):14-24), females are used in mo st studies because the strain of SJL male mice are very aggressive and display a high level of dominance and inflict wounds to their housemates. […]
Hypothetical sexual dimorphism in spinal cord organotypic cultures and chr onic excitotoxicity treatment derived from 8 day old Sprague-Dawley male or female pups was not assessed. […]

The next series deals with T1, human S1P1 receptor (Homo sapiens, UniProt P21453).
T1 construct: host or cells: CHO cells
Briefly: CellKey impedance assay in CHO cells, agonistic and antagonistic effect. The series is classed as cell-based. The conditions noted are these: GPCR based impedance assays. The method, then:
Cell on impedance modulation, using the CellKey (Cellular Dielectric Spectroscopy) detection method (CellKey 96, MDS Sciex, Concord, ON, Canada) at Eurofins Pharma Discovery Services (Celle-Lévescault, France). CHO cells were seeded onto a 96-well plate at 15.104 cells/well in HBSS buffer (Invitrogen), 20 mM HEPES (Invitrogen), 10% FCS (Invitrogen), and 0.1% BSA (Sigma), allowed to equilibrate for 60 min at 28 °C. DMSO solutions of compounds were diluted in HBSS and 0.1% BSA. Plates were placed onto the system, and measurements were made at a temperature of 28 °C. To measure the agonistic effect, compounds and controls in duplicate were added simultaneously to all of the wells using an integrated fluidics system. Impedance measurements were monitored for 10 min after ligand addition. […] To measure the antagonistic effect, compounds and controls in duplicate were pre-incubated for 15 min before the addition of the reference agonist S1P at 0.01 µM (EC80). Impedance measurements were monitored for 10 min.
Evaluation of the agonistic (a) and antagonist (b) effect of the compounds on the human S1P1 receptor. […] Data are expressed as percentage of control (no compound) activity, n = 2. TSA was used as a control; (d) Cellular HDAC activity assay. […] SAHA was used as a control. Ponceau S staining was used as loading control. Veh: Vehicle. […] TSA: Trichostatin A. SAHA: suberoylanilide hydroxamic acid.

This note sets out measurements from paper PMC9323733, “Efficacy of Vafidemstat in Experimental Autoimmune Encephalomyelitis Highlights the KDM1A/RCOR1/HDAC Epigenetic Axis in Multiple Sclerosis” (Pharmaceutics, 2022).

T1 sequence (P21453 whole entry): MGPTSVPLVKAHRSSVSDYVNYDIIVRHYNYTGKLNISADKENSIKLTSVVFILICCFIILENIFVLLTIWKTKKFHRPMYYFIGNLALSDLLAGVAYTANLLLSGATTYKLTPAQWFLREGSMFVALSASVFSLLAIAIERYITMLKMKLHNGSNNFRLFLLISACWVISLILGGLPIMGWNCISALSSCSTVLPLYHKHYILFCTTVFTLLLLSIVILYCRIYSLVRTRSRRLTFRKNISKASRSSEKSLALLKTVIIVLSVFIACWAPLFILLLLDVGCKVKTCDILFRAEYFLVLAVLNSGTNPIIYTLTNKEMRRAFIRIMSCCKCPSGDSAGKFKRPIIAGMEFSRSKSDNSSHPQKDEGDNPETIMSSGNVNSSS

For `Nc1nnc(CN[C@@H]2C[C@H]2c2ccc(OCc3ccccc3)cc2)o1` [ORY-2001], the “protection of motoneurons compared with riluzole (5 µM)” value in series [1] is “outperformed the effect exerted by riluzole”. The “survival of SMI32 positive motoneurons challenged with THA” value in series [1] (to 28 DIV) is on record as “protected the motoneurons from chronic excitotoxic stress at all doses tested”. Besides, the “difference of exposure between male and female animals” value in series [2] is on record as “Minor differences”. For the same compound, the “agonist and antagonist activity at S1P1 receptor” value at human S1P1 receptor is “neither ORY-2001 nor ORY-LSD1 (at concentrations well above those needed to fully inhibit KDM1A) showed any activity”; on human S1P1 receptor (listed as vafidemstat) it was “does not target the S1PR”.
